Assay results as given in ChEMBL document CHEMBL1201862, “PubChem BioAssay data set” (2004).
The source made the active and inactive calls.

Assays:
[1] = nonselective StAR promoter luciferase inhibitors – cell-based, luminescence, luciferase reporter, counter-screen for LRH-1 inverse agonist project, dose response (AID 651969); type: functional
[2] = NIH-3T3 fibroblast cytotoxicity, dose response, cytotoxicity control, cell-based, fluorescence, Alamar Blue, secondary assay (AID 2327); type: functional;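 further: NIH-3T3 mouse fibroblasts cultured with fluconazole at 8 µg/mL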
Steroidogenic factor 1 = Steroidogenic factor 1 (Homo sapiens, UniProt Q13285); test: Counterscreen for inverse agonists of the liver receptor homolog-1 (LRH-1; NR5A2): Luminescence-based cell-based high throughput dose response assay to identify inverse agonists of the Steroidogenic Factor 1 Nuclear Receptor (SF1; NR5A1).; type: functional
[3] = fluconazole-exposed Candida albicans growth modulators – fluorescence, retest, confirmation (AID 2467); type: functional, cell-based
[4] = molecular target: Nuclear receptor subfamily 5 group A member 2 (Homo sapiens, UniProt O00482); type: functional, cell-based;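 further: HEK293T cells transfected with LRH-1 and a StAR promoter luciferase reporter; potency for inhibitors that lower LRH-1 driven reporter light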
[5] = molecular target: T1, Corticotropin-releasing factor receptor 2/Corticotropin-releasing factor-binding protein (Homo sapiens, UniProt P24387+Q13324); test: Dose Response confirmation of uHTS hits for small molecule antagonists of the CRF-binding protein and CRF-R2 receptor complex.; type: functional; settings: read-out: IC50_Mean
T1 sequence (Q13324 whole entry): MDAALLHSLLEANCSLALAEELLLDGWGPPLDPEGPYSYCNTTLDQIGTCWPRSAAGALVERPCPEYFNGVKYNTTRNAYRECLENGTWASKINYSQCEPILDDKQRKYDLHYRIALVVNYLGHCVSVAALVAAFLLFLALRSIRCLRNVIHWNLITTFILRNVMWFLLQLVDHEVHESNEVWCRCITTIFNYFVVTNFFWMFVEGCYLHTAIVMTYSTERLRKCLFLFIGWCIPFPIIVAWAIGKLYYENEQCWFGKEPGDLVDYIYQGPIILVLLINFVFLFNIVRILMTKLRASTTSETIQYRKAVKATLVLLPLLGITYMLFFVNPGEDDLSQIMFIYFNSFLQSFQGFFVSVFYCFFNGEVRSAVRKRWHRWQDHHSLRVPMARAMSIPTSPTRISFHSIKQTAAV
T1 sequence (P24387 whole entry): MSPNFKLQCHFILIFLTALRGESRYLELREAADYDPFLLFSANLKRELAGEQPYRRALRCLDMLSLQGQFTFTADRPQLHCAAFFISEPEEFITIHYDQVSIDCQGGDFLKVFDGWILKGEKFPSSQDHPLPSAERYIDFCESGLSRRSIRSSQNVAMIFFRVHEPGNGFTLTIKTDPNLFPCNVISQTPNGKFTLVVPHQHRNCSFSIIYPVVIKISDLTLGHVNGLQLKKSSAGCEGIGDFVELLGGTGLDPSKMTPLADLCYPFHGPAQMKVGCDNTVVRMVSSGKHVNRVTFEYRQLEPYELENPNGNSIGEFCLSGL

[6] = molecular target: T1, Corticotropin-releasing factor receptor 2/Corticotropin-releasing factor-binding protein; test: activators of CRF receptor 2 with binding protein – uHTS hits, confirmation (AID 602473); type: functional; settings: read-out: EC50_Mean
[7] = blockers of CRF-binding protein–CRF-R2 complex – cell-based, uHTS hits, 384-well, dose response (AID 651639); type: functional, Homo sapiens; settings: read-out: IC50_Mean
[8] = molecular target: T2, Replicative DNA helicase DnaB (Mycobacterium tuberculosis, UniProt P9WMR3); test: DnaB intein splicing inhibitors, dose response, biochemical, cell-free fluorescence (AID 449749); type: functional
T2 sequence (P9WMR3 whole entry): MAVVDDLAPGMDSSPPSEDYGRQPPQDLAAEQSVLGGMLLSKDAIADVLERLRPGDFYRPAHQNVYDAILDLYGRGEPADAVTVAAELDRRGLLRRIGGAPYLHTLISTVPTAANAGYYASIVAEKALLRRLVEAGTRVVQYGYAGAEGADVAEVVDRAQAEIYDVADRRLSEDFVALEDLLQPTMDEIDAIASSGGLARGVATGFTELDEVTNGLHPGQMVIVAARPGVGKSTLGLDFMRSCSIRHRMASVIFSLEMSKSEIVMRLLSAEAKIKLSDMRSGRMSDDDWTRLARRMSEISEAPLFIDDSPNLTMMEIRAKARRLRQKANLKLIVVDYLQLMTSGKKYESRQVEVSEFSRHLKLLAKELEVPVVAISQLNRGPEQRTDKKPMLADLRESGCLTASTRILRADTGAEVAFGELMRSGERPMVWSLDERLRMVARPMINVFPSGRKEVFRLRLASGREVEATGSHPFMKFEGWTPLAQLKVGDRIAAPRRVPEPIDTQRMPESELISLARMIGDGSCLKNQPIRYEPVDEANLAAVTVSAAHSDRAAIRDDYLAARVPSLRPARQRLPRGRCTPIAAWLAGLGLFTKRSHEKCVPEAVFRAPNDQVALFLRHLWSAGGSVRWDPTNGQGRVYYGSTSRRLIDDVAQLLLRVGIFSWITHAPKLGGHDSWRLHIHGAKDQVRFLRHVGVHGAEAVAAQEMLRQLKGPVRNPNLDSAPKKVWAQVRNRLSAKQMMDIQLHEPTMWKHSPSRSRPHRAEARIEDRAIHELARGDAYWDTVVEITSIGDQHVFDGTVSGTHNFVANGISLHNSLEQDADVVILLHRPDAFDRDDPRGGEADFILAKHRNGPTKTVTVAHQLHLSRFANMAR

Protein RecA = molecular target: T3, Protein RecA (Mycobacterium tuberculosis, UniProt P9WHJ3); test: Fluorescence Cell-Free Homogeneous Dose Retest to Identify Inhibitors of RecA-Intein Splicing Activity. [Related pubchem assays (depositor defined):AID2097, AID2223, AID489010, AID492950]; type: functional
T3 sequence (P9WHJ3 whole entry): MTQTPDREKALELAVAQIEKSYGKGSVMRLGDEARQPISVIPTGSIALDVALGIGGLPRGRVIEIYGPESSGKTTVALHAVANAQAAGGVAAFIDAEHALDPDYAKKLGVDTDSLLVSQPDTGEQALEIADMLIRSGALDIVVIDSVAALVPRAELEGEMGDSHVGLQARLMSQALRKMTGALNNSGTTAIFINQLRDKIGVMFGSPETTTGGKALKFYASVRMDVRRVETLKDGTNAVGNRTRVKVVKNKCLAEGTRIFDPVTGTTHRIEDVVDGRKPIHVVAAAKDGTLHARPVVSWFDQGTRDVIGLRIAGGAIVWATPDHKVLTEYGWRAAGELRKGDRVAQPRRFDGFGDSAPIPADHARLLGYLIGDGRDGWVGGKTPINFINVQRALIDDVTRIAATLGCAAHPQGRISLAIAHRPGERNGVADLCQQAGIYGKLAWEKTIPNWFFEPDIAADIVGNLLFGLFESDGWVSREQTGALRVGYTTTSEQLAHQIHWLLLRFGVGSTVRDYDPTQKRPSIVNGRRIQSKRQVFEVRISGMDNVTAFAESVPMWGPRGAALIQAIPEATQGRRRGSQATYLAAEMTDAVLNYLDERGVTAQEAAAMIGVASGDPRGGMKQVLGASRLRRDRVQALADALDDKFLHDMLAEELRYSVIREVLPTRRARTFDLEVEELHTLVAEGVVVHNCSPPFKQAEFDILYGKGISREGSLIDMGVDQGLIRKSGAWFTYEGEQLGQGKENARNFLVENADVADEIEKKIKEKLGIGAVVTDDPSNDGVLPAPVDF

cells = type: functional
[9] = Vero E6 cell cytotoxicity, dose response, cytotoxicity control for non-replicating M. tuberculosis project, secondary assay (AID 492998); type: functional, VeroE6; settings: Vero C1008
[10] = THP-1 cell cytotoxicity, dose response, cytotoxicity control for non-replicating M. tuberculosis project (AID 489025); type: functional
[11] = viability loss in HeLa cells – cytotoxicity control for MgcRacGAP inhibitor project, dose response (AID 624300); type: functional
[12] = molecular target: T4, Rac GTPase-activating protein 1 (Homo sapiens, UniProt Q9H0H5); test: blockers of MgcRacGAP-driven Rac1 GTP hydrolysis – biochemical, ADP Hunter fluorescence, primary and confirmatory, confirmation (AID 624330); type: functional
T4 sequence (Q9H0H5 whole entry): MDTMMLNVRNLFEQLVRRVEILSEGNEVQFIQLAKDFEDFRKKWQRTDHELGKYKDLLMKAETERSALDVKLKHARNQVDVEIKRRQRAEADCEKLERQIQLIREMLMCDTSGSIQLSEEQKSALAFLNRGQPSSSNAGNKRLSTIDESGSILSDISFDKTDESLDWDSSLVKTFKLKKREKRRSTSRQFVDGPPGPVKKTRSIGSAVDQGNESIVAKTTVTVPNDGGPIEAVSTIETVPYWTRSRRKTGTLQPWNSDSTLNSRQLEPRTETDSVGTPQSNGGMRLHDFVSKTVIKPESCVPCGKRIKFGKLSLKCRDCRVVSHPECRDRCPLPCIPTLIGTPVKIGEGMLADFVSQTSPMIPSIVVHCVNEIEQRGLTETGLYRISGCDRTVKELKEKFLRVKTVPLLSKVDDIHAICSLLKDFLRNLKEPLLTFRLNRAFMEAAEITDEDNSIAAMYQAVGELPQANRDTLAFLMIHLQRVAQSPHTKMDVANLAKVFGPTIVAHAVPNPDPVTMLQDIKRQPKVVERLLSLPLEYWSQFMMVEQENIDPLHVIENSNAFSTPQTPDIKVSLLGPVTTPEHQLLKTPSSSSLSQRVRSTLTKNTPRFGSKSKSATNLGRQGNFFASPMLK

Troponin, cardiac muscle = Troponin, cardiac muscle (Homo sapiens, UniProt P19429+P45379+P63316); test: Fluorescence-based biochemical high throughput dose response assay for activators of the calcium sensitivity of cardiac Regulated Thin Filaments (RTF). [Related pubchem assays (depositor defined):AID493008, AID493018, AID504382, AID504383]; type: protein-complex assay
[13] = molecular target: T5, Short transient receptor potential channel 4 (Mus musculus, UniProt Q9QUQ5); test: block of DAMGO-driven TRPC4 calcium entry – cell-based, HEK293 TRPC4/mu-opioid, Fluo-4 calcium, dose response (AID 434942); type: functional;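 further: potency of inhibitors blocking the TRPC4 calcium response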
T5 sequence (Q9QUQ5 whole entry): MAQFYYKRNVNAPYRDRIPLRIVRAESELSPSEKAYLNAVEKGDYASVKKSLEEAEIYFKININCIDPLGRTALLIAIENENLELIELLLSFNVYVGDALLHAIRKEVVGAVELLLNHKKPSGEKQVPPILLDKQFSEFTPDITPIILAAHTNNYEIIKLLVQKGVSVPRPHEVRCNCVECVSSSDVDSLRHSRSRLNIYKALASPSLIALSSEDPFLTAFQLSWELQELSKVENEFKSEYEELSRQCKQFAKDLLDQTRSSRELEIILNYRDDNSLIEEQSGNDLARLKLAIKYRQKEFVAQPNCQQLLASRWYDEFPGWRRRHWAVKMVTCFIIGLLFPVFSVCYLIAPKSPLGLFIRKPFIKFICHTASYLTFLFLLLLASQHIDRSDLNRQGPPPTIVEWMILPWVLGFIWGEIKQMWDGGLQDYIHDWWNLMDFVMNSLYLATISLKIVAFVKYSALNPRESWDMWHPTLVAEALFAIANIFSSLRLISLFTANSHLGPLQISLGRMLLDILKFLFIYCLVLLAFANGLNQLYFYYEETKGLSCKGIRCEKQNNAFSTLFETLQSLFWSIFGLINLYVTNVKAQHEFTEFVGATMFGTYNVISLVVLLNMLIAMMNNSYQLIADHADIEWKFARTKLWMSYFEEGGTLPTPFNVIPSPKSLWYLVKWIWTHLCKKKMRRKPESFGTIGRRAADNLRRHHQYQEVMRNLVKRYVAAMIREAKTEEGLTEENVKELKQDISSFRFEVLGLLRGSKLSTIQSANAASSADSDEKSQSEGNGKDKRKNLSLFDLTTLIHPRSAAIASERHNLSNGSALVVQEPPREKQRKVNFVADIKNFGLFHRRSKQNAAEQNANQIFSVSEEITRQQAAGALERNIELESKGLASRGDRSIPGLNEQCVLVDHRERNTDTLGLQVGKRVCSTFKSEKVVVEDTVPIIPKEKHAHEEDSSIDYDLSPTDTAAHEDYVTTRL

SMILES: Oc1nc(Nc2ccc3c(c2)OCCO3)nnc1Cc1ccccc1
- IC50 [1]: 35.9 µM (inactive)
- EC50 [2]: > 160 µM (inconclusive)
- IC50 (Steroidogenic factor 1): 1.87 µM (active)
- EC50 [3]: > 38 µM (not active)
- IC50 [4]: 35.9 µM (inactive)

SMILES: COc1ccc(-c2cc3nc(C4CCN(C(=O)OC(C)(C)C)CC4)c(C(=O)O)cn3n2)cc1
- IC50 [5]: 13.1 µM (active)
- EC50 [6]: > 53 µM (inactive)
- IC50 [7]: 7.23 µM (active)

SMILES: COc1ccc(N2C(=O)CSC23C(=O)N2c4c(cccc43)C(C)=CC2(C)C)cc1 (stereo unspecified)
- IC50 [5]: 11 µM (active)
- AC50 [8]: 10.3 µM (active)
- EC50 [6]: > 53 µM (inactive)
- EC50 (Protein RecA): 35.6 µM (active)
- IC50 [7]: 4.46 µM (active)

SMILES: Cc1onc(-c2ccccc2Cl)c1C(=O)ON=C(N)c1ccc([N+](=O)[O-])o1
- IC50 [1]: 35.9 µM (inactive)
- IC50 (Steroidogenic factor 1): 0.309 µM (active)
- IC50 (cells): 2.13 µM (active)
- CC50 [9]: 14.9 µM (active)
- CC50 [10]: 17.9 µM (active)
- IC50 [4]: 0.495 µM (active)

SMILES: COc1cc(/C=N/NC(=S)NC2CC3CCC2C3)ccc1O (stereo unspecified)
- CC50 [11]: 100 µM (active)
- IC50 [12]: 48.8 µM (active)

SMILES: O=C(O)c1ccc(NC(=S)NC(=O)c2ccc(-c3ccccc3)cc2)cc1
- EC50 [2]: > 150 µM (inactive)
- IC50 [5]: 6.04 µM (active)
- EC50 [6]: > 53 µM (inactive)
- IC50 [7]: 5.93 µM (active)
- EC50 (Troponin, cardiac muscle): > 71.5 µM (inactive)
- EC50 [3]: 1.28 µM (active)
- EC50 [13]: 4.73 µM (active)

SMILES: CC(O)(c1ccc(F)c(F)c1)c1nc(-c2ccc(S(C)(=O)=O)cc2)cs1 (stereo unspecified)
- IC50 [1]: 35.8 µM (inactive)
- IC50 (Steroidogenic factor 1): 1.91 µM (active)
- IC50 [4]: 11.3 µM (inactive)
